From patent publication US9643970B2, “Substituted imidazo [1,5-a]pyrazines as PDE9 inhibitors” (H Lundbeck A/S, priority 2012, dated 2017)

The compounds below were run against PDE9 (Homo sapiens, UniProt O76083) (assay: PDE9 inhibition assay). Details: not given.
Format: biochemical
Description: Reactions are initiated by addition of the cyclic nucleotide substrate, and reactions are allowed to proceed for one hr at room temperature before being terminated through mixing with 15 uL 8 mg/mL yttrium silicate SPA beads (Amersham). […] IC50 values were calculated by non linear regression using XLfit (IDBS).

Sequence of PDE9 (O76083 whole entry): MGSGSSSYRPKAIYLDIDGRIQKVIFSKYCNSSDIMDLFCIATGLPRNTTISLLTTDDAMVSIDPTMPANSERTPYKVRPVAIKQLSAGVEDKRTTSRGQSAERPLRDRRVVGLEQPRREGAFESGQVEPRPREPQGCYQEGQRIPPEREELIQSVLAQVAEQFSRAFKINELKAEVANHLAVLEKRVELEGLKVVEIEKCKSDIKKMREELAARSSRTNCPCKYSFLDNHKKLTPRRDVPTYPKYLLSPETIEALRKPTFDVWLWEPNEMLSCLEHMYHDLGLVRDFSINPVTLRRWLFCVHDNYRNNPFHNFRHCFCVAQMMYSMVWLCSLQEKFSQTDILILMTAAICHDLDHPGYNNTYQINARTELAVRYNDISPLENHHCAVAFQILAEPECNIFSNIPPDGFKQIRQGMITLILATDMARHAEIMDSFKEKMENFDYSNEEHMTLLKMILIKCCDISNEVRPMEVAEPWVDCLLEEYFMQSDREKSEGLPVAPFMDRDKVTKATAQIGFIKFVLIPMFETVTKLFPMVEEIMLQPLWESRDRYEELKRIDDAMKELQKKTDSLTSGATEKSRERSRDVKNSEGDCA

How did the IC50 turn out when `CCc1ccc(C2CN(C(C)c3cn4c(-c5ccccc5)ncc4c(=O)[nH]3)C2)cc1` (centres unmarked) [Compound 30, 6-[1-[3-(4-ethylphenyl)azetidin-1-yl]ethyl]-3-phenyl-7h-imidazo[1,5-a]pyrazin-8-one] was run?
The IC50 was 16 nM.

How did the IC50 turn out when `CC(c1cn2c(-c3ccccc3)ncc2c(=O)[nH]1)N1CC(Oc2ccccc2F)C1` (centres unmarked) [Compound 32, 6-[1-[3-(2-fluorophenoxy)azetidin-1-yl]ethyl]-3-phenyl-7h-imidazo[1,5-a]pyrazin-8-one] was run?
The IC50 was 72 nM.

`O=c1[nH]c(CN2CC(Oc3ccccc3F)C2)cn2c(-c3ccccc3)ncc12` [Compound 33, 6-[[3-(2-fluorophenoxy)azetidin-1-yl]methyl]-3-phenyl-7h-imidazo[1,5-a]pyrazin-8-one] was tested. Which IC50 did it give?
Its IC50 is 18 nM.

`CC(c1cn2c(C3CCCC3)ncc2c(=O)[nH]1)N1CC(Oc2ccc(F)cc2)C1` (centres unmarked) [Compound 47, 3-cyclopentyl-6-[1-[3-(4-fluorophenoxy)azetidin-1-yl]ethyl]-7h-imidazo[1,5-a]pyrazin-8-one] was tested. Which IC50 did it give?
The IC50 was 3 nM.

For `O=c1[nH]c(CN2CC(Oc3ccccc3F)C2)cn2c(C3CCOCC3)ncc12` [Compound 50, 6-[[3-(2-fluorophenoxy)azetidin-1-yl]methyl]-3-tetrahydropyran-4-yl-7h-imidazo[1,5-a]pyrazin-8-one], which IC50 is on record?
The IC50 was 21 nM.

`O=c1[nH]c(CN2CC(OCc3ccccc3)C2)cn2c(C3CCCC3)ncc12` [Compound 56, 6-[(3-benzyloxyazetidin-1-yl)methyl]-3-cyclopentyl-7h-imidazo[1,5-a]pyrazin-8-one] was tested. Which IC50 did it give?
Its IC50 is 50 nM.

With `CC(C)OC1CN(Cc2cn3c(C4CCCC4)ncc3c(=O)[nH]2)C1` [Compound 57, 3-cyclopentyl-6-[(3-isopropoxyazetidin-1-yl)methyl]-7h-imidazo[1,5-a]pyrazin-8-one] as the compound, how does the IC50 read?
The IC50 was 17 nM.

For `CC(C)COC1CN(Cc2cn3c(C4CCCC4)ncc3c(=O)[nH]2)C1` [Compound 58, 3-cyclopentyl-6-[(3-isobutoxyazetidin-1-yl)methyl]-7h-imidazo[1,5-a]pyrazin-8-one], which IC50 is on record?
The IC50 was 4 nM.

How did the IC50 turn out when `CC(c1cn2c(C3CCCC3)ncc2c(=O)[nH]1)N1CC(c2ccc(N(C)C)cc2)C1` (centres unmarked) [Compound 59, 3-cyclopentyl-6-[1-[3-(4-dimethylaminophenyl)azetidin-1-yl]ethyl]-7h-imidazo[1,5-a]pyrazin-8-one] was run?
Its IC50 is 57 nM.

Which IC50 does the source give for `O=c1[nH]c(CN2CC(c3ccccn3)C2)cn2c(-c3ccc(F)cc3)ncc12` [Compound 61, 3-(4-fluorophenyl)-6-[[3-(2-pyridyl)azetidin-1-yl]methyl]-7h-imidazo[1,5-a]pyrazin-8-one] here?
Its IC50 is 79 nM.

For `O=c1[nH]c(CN2CC(c3ccccn3)C2)cn2c(C3CCOCC3)ncc12` [Compound 62, 6-[[3-(2-pyridyl)azetidin-1-yl]methyl]-3-tetrahydropyran-4-yl-7h-imidazo[1,5-a]pyrazin-8-one], which IC50 is on record?
The IC50 was 78 nM.

Same assay, conditions: SPA assay, 10 nM 3H-cAMP, 1 hour incubation; read-out: IC50

`CC1CN(Cc2ccccc2)CC1c1cn2c(-c3ccccc3)ncc2c(=O)[nH]1` (centres unmarked) [Compound 31, 6-(1-benzyl-4-methyl-pyrrolidin-3-yl)-3-phenyl-7h-imidazo[1,5-a]pyrazin-8-one] was tested. Which IC50 did it give?
Its IC50 is 33 nM.

`COc1ccc(C2CN(C(C)c3cn4c(-c5ccccc5)ncc4c(=O)[nH]3)C2)cc1` (centres unmarked) [Compound 34, 6-[1-[3-(4-methoxyphenyl)azetidin-1-yl]ethyl]-3-phenyl-7h-imidazo[1,5-a]pyrazin-8-one] was tested. Which IC50 did it give?
Its IC50 is 66 nM.

Which IC50 does the source give for `N#Cc1ccc(C2CN(Cc3cn4c(-c5ccccc5)ncc4c(=O)[nH]3)C2)cc1` [Compound 35, 4-[1-[(8-oxo-3-phenyl-7h-imidazo[1,5-a]pyrazin-6-yl)methyl]azetidin-3-yl]benzonitrile] here?
The IC50 was 49 nM.

Which IC50 does the source give for `CC(c1cn2c(-c3ccccc3)ncc2c(=O)[nH]1)N1CC(c2ncccn2)C1` (centres unmarked) [Compound 36, 3-phenyl-6-[1-(3-pyrimidin-2-ylazetidin-1-yl)ethyl]-7h-imidazo[1,5-a]pyrazin-8-one] here?
The IC50 was 79 nM.

For `O=c1[nH]c(CN2CC(c3ccccn3)C2)cn2c(-c3ccccc3)ncc12` [Compound 37, 3-phenyl-6-[[3-(2-pyridyl)azetidin-1-yl]methyl]-7h-imidazo[1,5-a]pyrazin-8-one], which IC50 is on record?
The IC50 was 29 nM.

Which IC50 does the source give for `CC(c1cn2c(-c3ccccc3)ncc2c(=O)[nH]1)N1CC(c2ccc(C#N)cc2)C1` (centres unmarked) [Compound 38, 4-[1-[1-(8-oxo-3-phenyl-7h-imidazo[1,5-a]pyrazin-6-yl)ethyl]azetidin-3-yl]benzonitrile] here?
The IC50 was 23 nM.

Which IC50 does the source give for `O=c1[nH]c(CN2CC(Oc3ncccn3)C2)cn2c(C3CCCC3)ncc12` [Compound 39, 3-cyclopentyl-6-[(3-pyrimidin-2-yloxyazetidin-1-yl)methyl]-7h-imidazo[1,5-a]pyrazin-8-one] here?
The IC50 was 22 nM.

Which IC50 does the source give for `CC(c1cn2c(C3CCCC3)ncc2c(=O)[nH]1)N1CC(c2ccc(F)cc2)C1` (centres unmarked) [Compound 40, 3-cyclopentyl-6-[1-[3-(4-fluorophenyl)azetidin-1-yl]ethyl]-7h-imidazo[1,5-a]pyrazin-8-one] here?
Its IC50 is 5 nM.

How did the IC50 turn out when `COc1ccc(C2CN(Cc3cn4c(C5CCCC5)ncc4c(=O)[nH]3)C2)cc1` [Compound 41, 3-cyclopentyl-6-[[3-(4-methoxyphenyl)azetidin-1-yl]methyl]-7h-imidazo[1,5-a]pyrazin-8-one] was run?
The IC50 was 26 nM.

For `CC(c1cn2c(C3CCCC3)ncc2c(=O)[nH]1)N1CC(Oc2ncccn2)C1` (centres unmarked) [Compound 42, 3-cyclopentyl-6-[1-(3-pyrimidin-2-yloxyazetidin-1-yl)ethyl]-7h-imidazo[1,5-a]pyrazin-8-one], which IC50 is on record?
The IC50 was 8 nM.

With `CC1CN(Cc2ccccn2)CC1c1cn2c(-c3ccccc3)ncc2c(=O)[nH]1` (centres unmarked) [Compound 43, 6-[4-methyl-1-(2-pyridylmethyl)pyrrolidin-3-yl]-3-phenyl-7h-imidazo[1,5-a]pyrazin-8-one] as the compound, how does the IC50 read?
The IC50 was 14 nM.

With `O=c1[nH]c(CN2CC(c3ccc(F)cc3)C2)cn2c(C3CCOCC3)ncc12` [Compound 44, 6-[[3-(4-fluorophenyl)azetidin-1-yl]methyl]-3-tetrahydropyran-4-yl-7h-imidazo[1,5-a]pyrazin-8-one] as the compound, how does the IC50 read?
The IC50 was 25 nM.

How did the IC50 turn out when `O=c1[nH]c(CN2CC(OCc3ccccc3)C2)cn2c(-c3ccc(F)cc3)ncc12` [Compound 45, 6-[(3-benzyloxyazetidin-1-yl)methyl]-3-(4-fluorophenyl)-7h-imidazo[1,5-a]pyrazin-8-one] was run?
Its IC50 is 1 nM.

With `Cc1nc2ccccc2nc1OC1CN(Cc2cn3c(C4CCCC4)ncc3c(=O)[nH]2)C1` [Compound 46, 3-cyclopentyl-6-[[3-(3-methylquinoxalin-2-yl)oxyazetidin-1-yl]methyl]-7h-imidazo[1,5-a]pyrazin-8-one] as the compound, how does the IC50 read?
The IC50 was 6 nM.

For `CN(C)c1ccc(C2CN(Cc3cn4c(C5CCCC5)ncc4c(=O)[nH]3)C2)cc1` [Compound 48, 3-cyclopentyl-6-[[3-(4-dimethylaminophenyl)azetidin-1-yl]methyl]-7h-imidazo[1,5-a]pyrazin-8-one], which IC50 is on record?
Its IC50 is 40 nM.

`O=c1[nH]c(CN2CC(Oc3ccccc3F)C2)cn2c(-c3ccc(F)cc3)ncc12` [Compound 49, 6-[[3-(2-fluorophenoxy)azetidin-1-yl]methyl]-3-(4-fluorophenyl)-7h-imidazo[1,5-a]pyrazin-8-one] was tested. Which IC50 did it give?
The IC50 was 16 nM.

With `CN(C)c1ccc(C2CN(Cc3cn4c(-c5ccc(F)cc5)ncc4c(=O)[nH]3)C2)cc1` [Compound 51, 6-[[3-(4-dimethylaminophenyl)azetidin-1-yl]methyl]-3-(4-fluorophenyl)-7h-imidazo[1,5-a]pyrazin-8-one] as the compound, how does the IC50 read?
Its IC50 is 7 nM.

With `CC(c1cn2c(C3CCCC3)ncc2c(=O)[nH]1)N1CC(Oc2ccccc2F)C1` (centres unmarked) [Compound 52, 3-cyclopentyl-6-[1-[3-(2-fluorophenoxy)azetidin-1-yl]ethyl]-7h-imidazo[1,5-a]pyrazin-8-one] as the compound, how does the IC50 read?
The IC50 was 49 nM.

Which IC50 does the source give for `O=c1[nH]c(CN2CC(c3ncccn3)C2)cn2c(-c3ccc(F)cc3)ncc12` [Compound 53, 3-(4-fluorophenyl)-6-[(3-pyrimidin-2-ylazetidin-1-yl)methyl]-7h-imidazo[1,5-a]pyrazin-8-one] here?
Its IC50 is 22 nM.

Which IC50 does the source give for `O=c1[nH]c(CN2CC(c3ncccn3)C2)cn2c(C3CCOCC3)ncc12` [Compound 54, 6-[(3-pyrimidin-2-ylazetidin-1-yl)methyl]-3-tetrahydropyran-4-yl-7h-imidazo[1,5-a]pyrazin-8-one] here?
The IC50 was 102 nM.

With `O=c1[nH]c(CN2CC(Oc3cnccn3)C2)cn2c(-c3ccc(F)cc3)ncc12` [Compound 55, 3-(4-fluorophenyl)-6-[(3-pyrazin-2-yloxyazetidin-1-yl)methyl]-7h-imidazo[1,5-a]pyrazin-8-one] as the compound, how does the IC50 read?
The IC50 was 9 nM.

`O=c1[nH]c(CN2CC(Oc3cccc(F)n3)C2)cn2c(-c3ccc(F)cc3)ncc12` [Compound 60, 3-(4-fluorophenyl)-6-[[3-[(6-fluoro-2-pyridyl)oxy]azetidin-1-yl]methyl]-7h-imidazo[1,5-a]pyrazin-8-one] was tested. Which IC50 did it give?
Its IC50 is 164 nM.

With `O=c1[nH]c(CN2CC(Oc3ccc(F)cc3)C2)cn2c(-c3ccc(F)cc3)ncc12` [Compound 63, 6-[[3-(4-fluorophenoxy)azetidin-1-yl]methyl]-3-(4-fluorophenyl)-7h-imidazo[1,5-a]pyrazin-8-one] as the compound, how does the IC50 read?
Its IC50 is 13 nM.

Which IC50 does the source give for `O=c1[nH]c(CN2CC(Oc3ccc(OC(F)(F)F)cc3)C2)cn2c(C3CCOCC3)ncc12` [Compound 64, 3-tetrahydropyran-4-yl-6-[[3-[4-(trifluoromethoxy)phenoxy]azetidin-1-yl]methyl]-7h-imidazo[1,5-a]pyrazin-8-one] here?
The IC50 was 13 nM.

How did the IC50 turn out when `O=c1[nH]c(CN2CC(Oc3cccc(F)n3)C2)cn2c(C3CCOCC3)ncc12` [Compound 65, 6-[[3-[(6-fluoro-2-pyridyl)oxy]azetidin-1-yl]methyl]-3-tetrahydropyran-4-yl-7h-imidazo[1,5-a]pyrazin-8-one] was run?
Its IC50 is 91 nM.

For `O=c1[nH]c(CN2CCC(Nc3ccccc3)C2)cn2c(C3CCOCC3)ncc12` (centres unmarked) [Compound 66, 6-[(3-anilinopyrrolidin-1-yl)methyl]-3-tetrahydropyran-4-yl-7h-imidazo[1,5-a]pyrazin-8-one], which IC50 is on record?
Its IC50 is 15 nM.

With `O=c1[nH]c(CN2CC(OCc3ccccc3)C2)cn2c(C3CCOCC3)ncc12` [Compound 67, 6-[(3-benzyloxyazetidin-1-yl)methyl]-3-tetrahydropyran-4-yl-7h-imidazo[1,5-a]pyrazin-8-one] as the compound, how does the IC50 read?
Its IC50 is 20 nM.
